Consider eleven compounds from US20210380606A1, “5-AZAINDAZOLE DERIVATIVES AS ADENOSINE RECEPTOR ANTAGONISTS” (Merck Patent GmbH, priority 2018, published 2021).

In assay [1] the target is T1, human A2A receptors (Homo sapiens, UniProt P29274).
T1 construct: expressed in transfected cells; host or cells: HEK293
Nature of the assay: Functional human A2A receptor activity, recombinant HEK293 cells, cAMP (HTRF). Particulars: read-out: A2A (Category). The format is cell-based. The method, boiled down:
(§1)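 Adenosine receptor activity tracked via second-messenger cAMP; incubation 15 min, then HTRF detection of cellular cAMP.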

Assay [2] deals with T2, human A2B receptors (Homo sapiens, UniProt P29275).
T2 construct: expressed in transfected cells; host or cells: HEK293
T2 sequence (P29275 1-332): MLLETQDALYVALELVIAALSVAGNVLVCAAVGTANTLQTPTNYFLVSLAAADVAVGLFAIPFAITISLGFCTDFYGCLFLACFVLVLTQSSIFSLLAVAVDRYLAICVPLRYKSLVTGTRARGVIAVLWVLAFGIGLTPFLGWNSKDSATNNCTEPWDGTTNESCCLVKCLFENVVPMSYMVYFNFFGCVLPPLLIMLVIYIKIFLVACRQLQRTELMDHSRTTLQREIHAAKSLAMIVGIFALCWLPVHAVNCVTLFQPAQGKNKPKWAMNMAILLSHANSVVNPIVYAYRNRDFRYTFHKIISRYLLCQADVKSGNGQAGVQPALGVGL
Nature of the assay: Functional human A2B receptor activity, recombinant HEK293 cells, cAMP (HTRF). The note with it: read-out: A2B (Category). The format is cell-based. The method, boiled down:
as §1

T1 sequence (P29274 whole entry): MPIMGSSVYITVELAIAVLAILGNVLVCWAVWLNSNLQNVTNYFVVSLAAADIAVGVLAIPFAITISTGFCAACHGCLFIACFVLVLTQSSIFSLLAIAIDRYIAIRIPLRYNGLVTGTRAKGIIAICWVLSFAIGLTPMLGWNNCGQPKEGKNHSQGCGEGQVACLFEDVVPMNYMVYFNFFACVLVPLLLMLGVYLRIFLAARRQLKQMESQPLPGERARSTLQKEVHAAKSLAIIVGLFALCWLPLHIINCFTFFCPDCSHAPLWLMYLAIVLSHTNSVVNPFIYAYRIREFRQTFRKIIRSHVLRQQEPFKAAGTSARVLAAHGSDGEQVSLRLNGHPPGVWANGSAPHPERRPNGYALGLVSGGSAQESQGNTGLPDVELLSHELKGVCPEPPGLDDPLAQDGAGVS

As for `O=C(c1cc2c(cn1)c(-c1coc3ccccc13)nn2CCF)N1[C@@H]2CC[C@H]1C[C@@H](O)C2` [Compound 221, [3-Benzofuran-3-yl-1-(2-fluoro-ethyl)-1H-pyrazolo[4,3-c]pyridin-6-yl]-(3-endo-hydroxy-8-aza-bicyclo[3.2.1]oct-8-yl)-methanone], the IC50 in assay [1] and in assay [2] was less than 100 nM each time.

For the compound `CCCn1nc(-c2coc3ccccc23)c2cnc(C(=O)N3[C@@H]4CC[C@H]3C[C@@H](O)C4)cc21` [Compound 222, (3-Benzofuran-3-yl-1-propyl-1H-pyrazolo[4,3-c]pyridin-6-yl)-(3-endo-hydroxy-8-aza-bicyclo[3.2.1]oct-8-yl)-methanone], the results for the IC50 in assay [1] and in assay [2] were less than 100 nM and less than 1000 nM, respectively.

For the compound `O=C(c1cc2c(cn1)c(-c1coc3ccccc13)nn2CC(F)(F)F)N1CCC(F)(F)CC1` [Compound 225, [3-(benzofuran-3-yl)-1-(2,2,2-trifluoroethyl)pyrazolo[4,3-c]pyridin-6-yl]-(4,4-difluoro-1-piperidyl)methanone], the IC50 is less than 100 nM in assay [1] and less than 1000 nM in assay [2].

Take `O=C(c1cc2c(cn1)c(-c1coc3ccccc13)nn2CC(F)(F)F)N1CCCC(F)(F)C1` [Compound 226, [3-(benzofuran-3-yl)-1-(2,2,2-trifluoroethyl)pyrazolo[4,3-c]pyridin-6-yl]-(3,3-difluoro-1-piperidyl)methanone]: the IC50 in assay [1] was less than 100 nM; in assay [2] it was less than 1000 nM.

`O=C(c1cc2c(cn1)c(-c1coc3ccccc13)nn2CC(F)(F)F)N1CCCC(O)C1` (stereo not shown) [Compound 227, [3-Benzofuran-3-yl-1-(2,2,2-trifluoro-ethyl)-1H-pyrazolo[4,3-c]pyridin-6-yl]-(3-hydroxy-piperidin-1-yl)-methanone]: the IC50 in assay [1] and in assay [2] was less than 100 nM in each case.

Take `O=C(c1cc2c(cn1)c(-c1coc3ccccc13)nn2CC(F)(F)F)N1CCCC(O)CC1` (stereo not shown) [Compound 228, [3-(benzofuran-3-yl)-1-(2,2,2-trifluoroethyl)pyrazolo[4,3-c]pyridin-6-yl]-(4-hydroxyazepan-1-yl)methanone]: the IC50 in assay [1] and in assay [2] was less than 100 nM in each case.

Take `[2H]C1([2H])COCCN(C(=O)c2cc3c(cn2)c(-c2coc4ccccc24)nn3CC(F)(F)F)C1` [Compound 229, [3-(benzofuran-3-yl)-1-(2,2,2-trifluoroethyl)pyrazolo[4,3-c]pyridin-6-yl]-(6,6-dideuterio-1,4-oxazepan-4-yl)methanone]: the IC50 in assay [1] and in assay [2] was less than 100 nM in each case.

In the case of `O=C(c1cc2c(cn1)c(-c1coc3ccccc13)nn2CC(F)(F)F)N1CCOCC(F)C1` (stereo not shown) [Compound 230, [3-(benzofuran-3-yl)-1-(2,2,2-trifluoroethyl)pyrazolo[4,3-c]pyridin-6-yl]-[6-fluoro-1,4-oxazepan-4-yl]methanone], the IC50 in assay [1] and in assay [2] was less than 100 nM each time.

Turning to `O=C(c1cc2c(cn1)c(-c1coc3ccccc13)nn2CC(F)(F)F)N(C1CC1)C1CC1` [Compound 232, 3-(benzofuran-3-yl)-N,N-di(cyclopropyl)-1-(2,2,2-trifluoroethyl)-pyrazolo[4,3-c]pyridine-6-carboxamide], the IC50 is less than 100 nM in assay [1] and less than 1000 nM in assay [2].

As to `CC(C)N(C(=O)c1cc2c(cn1)c(-c1coc3ccccc13)nn2CC(F)(F)F)C(C)C` [Compound 233, 3-(benzofuran-3-yl)-N,N-diisopropyl-1-(2,2,2-trifluoroethyl)pyrazolo[4,3-c]pyridine-6-carboxamide], the IC50 in assay [1] was less than 100 nM; in assay [2] it was less than 1000 nM.

With `CCN(C(=O)c1cc2c(cn1)c(-c1coc3ccccc13)nn2CC(F)(F)F)C(C)C` [Compound 234, 3-(benzofuran-3-yl)-N-ethyl-N-isopropyl-1-(2,2,2-trifluoroethyl)-pyrazolo[4,3-c]pyridine-6-carboxamide], the IC50 in assay [1] was less than 100 nM; in assay [2] it was less than 1000 nM.
